{"source": "patent US10807958B2", "about": "“1,4-bis(3-aminopropyl)piperazine derivative and its use” (INSERM (Institut National de la Sante et de la Recherche …, priority 2015, dated 2020)", "key": {"[1]": {"test_system": "Tau proteins of Thy-Tau22 animals (hippocampus)", "test": "1D SDS-PAGE and Western-blot of Tau expression, catabolites and phosphorylation in hippocampus", "type": "in vivo, mouse", "settings": "treated vs untreated, FIG. 6", "description": "Wild-type C57BL/6J animals of 3 months were purchased at Charles Rivers Laboratories (France) and were allow to acclimate in the animal facility for at least one week before any treatment. Thy-Tau22 transgenic colonies (C57BL/6J genetic background) were obtained by crossing heterozygous Thy-Tau22 males with C57BL/6 WT females. […] In this model, a progressive development of NFT is observed in the hippocampus and amygdala, which parallels behavioral impairments (Schindowski et al., 2006). Furthermorever, in the hippocampus, hyper- and abnormally phosphorylated Tau species accumulate within the somato-dendritic area (Schindowski et al., 2006).\nFor animal treatment, animals were randomly distributed and the compound of Formula I was given in the drinking water at final concentration of 0.5 or 1 mg/kg. Drinking bottles were changed once per week, volume consumption was measured along the treatment period. Food consumption and body weight were assessed. In wild-type animals the pilot study of drug treatment was performed for one month to establish the innocuousness of the treatment with the compound of Formula I. This was based on the physiological, social and behavioural assessments. Thy-Tau22 males were treated for 4 months starting at 3 month old. All protocols were approved by the local ethics committee (n^∘342012, CEEA).\nAfter behavioral assessment, blood was collected in 1.5 mL polypropylene tubes (Eppendorf, France), mice were sacrificed by cervical dislocation to avoid any modifications instrumental to anesthesia (Lefreche et al. 2012). Hippocampi and cortices were dissected and snap frozen in 1.5 mL tubes (Eppendorf). Tissue was homogenized in Tris-HCl buffer (10 mM pH 7.4) containing 320 mM sucrose, protease inhibitors (Complete mini EDTA-free, Roche) sonicated and spun at 12,000×g for 10 min at 4° C. The supernatant was recovered, protein concentration was achieved using the BCA Protein quantification assay kit (Pierce) according to the manufacturer instruction. The supernatant was further processed for biochemical analyses or kept at −80° C. For 1D or 2D gels, the same lysis buffer was used. Thus, equal amount protein in Tris buffer were added with a solution containing 7M urea, 2M thiourée with 2% SDS and sonicated at 60 Hz 30 pulses.\nFor the western-blot analysis of Tau proteins, SDS-PAGE was performed according to the manufacturer's instructions using Bis-Tris 4-12% gradient acrylamide gel (NuPage® Bis-Tris PreCast 12 wells, Life Technologies). The apparent molecular weights were calibrated using the molecular weight markers (Novex and Magic Marks, Life Technologies). Electrophoresis was performed under a continuous tension of 100V/per gel for 1 h. Proteins were reversibly stained with Ponceau Red to check the quality of the efficacy of protein transfer. For western-blotting, the membranes were blocked in 25 mM Tris-HCl pH 8.0, 150 mM NaCl, 0.1% Tween-20 (v/v) (TBS-T) and 5% (w/v) of skimmed milk (TBS-M) for 30 min and they were incubated overnight at 4° C. the primary antibody. The nitrocellulose membrane is rinsed three times by gentle shaking in TBS-T during 10 min each. […]\nBrain proteins (of hippocampus) from untreated and Compound I⋅HCl treated thy-tau22 animals were resolved by 1D SDS-PAGE and Tau proteins were labeled with Pan-Tau antibodies (N-ter, C-ter). Catabolites detected with these antibodies are indicated as f-Nter and f-Cter. […]"}, "Thy-Tau22 mice": {"test_system": "Thy-Tau22 mice", "test": "Immunohistochemical measurement of tau pathology (NFT burden) in hippocampal CA1", "type": "in vivo, mouse", "settings": "Thy-Tau22, 0.5 mg/kg vs untreated, FIG. 5", "description": "Wild-type C57BL/6J animals of 3 months were purchased at Charles Rivers Laboratories (France) and were allow to acclimate in the animal facility for at least one week before any treatment. Thy-Tau22 transgenic colonies (C57BL/6J genetic background) were obtained by crossing heterozygous Thy-Tau22 males with C57BL/6 WT females. […] In this model, a progressive development of NFT is observed in the hippocampus and amygdala, which parallels behavioral impairments (Schindowski et al., 2006). Furthermorever, in the hippocampus, hyper- and abnormally phosphorylated Tau species accumulate within the somato-dendritic area (Schindowski et al., 2006). For animal treatment, animals were randomly distributed and the compound of Formula I was given in the drinking water at final concentration of 0.5 or 1 mg/kg. Drinking bottles were changed once per week, volume consumption was measured along the treatment period. Food consumption and body weight were assessed. […] Quantification of labeled neurons was achieved using the NIH-Image J software and expressed in arbitrary units (A.U). The burden of NFT in the hippocampal CA1 was investigated by immunohistochemistry and quantification. […]"}, "[2]": {"settings": "ratio phospho-epitope/total hTau"}}}
{"smiles": "CC(C)CN(CCCN1CCN(CCCNc2c3c(nc4ccccc24)CCCC3)CC1)CC(C)C.Cl", "note": "[Compound I⋅HCl, N-[3-(4-{3-[Bis(2-methylpropyl)amino]propyl}piperazin-1-yl)propyl]-1,2,3,4-tetrahydroacridin-9-amine hydrochloride]", "values": [{"measurement": "Tau C-terminal catabolites products at 43 kDa", "setting": "[1]", "value": "significantly increased"}, {"measurement": "Tau N-terminal catabolites", "setting": "[1]", "value": "significantly decreased"}, {"measurement": "Tau phosphorylation at other phospho-sites (pSer199, pSer262, pSer422, Tau-1)", "setting": "[1]", "value": "not significantly modified"}, {"measurement": "Tau phosphorylation at phospho-site 396", "setting": "[1]; [2]", "value": "significant reduction"}, {"measurement": "Tau phosphorylation at phospho-site 404", "setting": "[1]; [2]", "value": "significant reduction"}, {"measurement": "AT8 immunostaining", "setting": "Thy-Tau22 mice", "value": "no significant differences"}, {"measurement": "average surface of staining after AT100 staining", "setting": "Thy-Tau22 mice", "value": "significantly reduced"}]}
